Values quoted from earlier work as cited in US20090291140A1, “TREATMENT OF DY[…] TRANSDERMAL ADMINISTRATION OF NONSTEROIDAL ANTI-INFLAMMATORY DRUGS” (priority 2008, published 2009).

Biological target: T1, 5-lipoxygenase (Homo sapiens, UniProt P09917)
T1 sequence (P09917 1-674): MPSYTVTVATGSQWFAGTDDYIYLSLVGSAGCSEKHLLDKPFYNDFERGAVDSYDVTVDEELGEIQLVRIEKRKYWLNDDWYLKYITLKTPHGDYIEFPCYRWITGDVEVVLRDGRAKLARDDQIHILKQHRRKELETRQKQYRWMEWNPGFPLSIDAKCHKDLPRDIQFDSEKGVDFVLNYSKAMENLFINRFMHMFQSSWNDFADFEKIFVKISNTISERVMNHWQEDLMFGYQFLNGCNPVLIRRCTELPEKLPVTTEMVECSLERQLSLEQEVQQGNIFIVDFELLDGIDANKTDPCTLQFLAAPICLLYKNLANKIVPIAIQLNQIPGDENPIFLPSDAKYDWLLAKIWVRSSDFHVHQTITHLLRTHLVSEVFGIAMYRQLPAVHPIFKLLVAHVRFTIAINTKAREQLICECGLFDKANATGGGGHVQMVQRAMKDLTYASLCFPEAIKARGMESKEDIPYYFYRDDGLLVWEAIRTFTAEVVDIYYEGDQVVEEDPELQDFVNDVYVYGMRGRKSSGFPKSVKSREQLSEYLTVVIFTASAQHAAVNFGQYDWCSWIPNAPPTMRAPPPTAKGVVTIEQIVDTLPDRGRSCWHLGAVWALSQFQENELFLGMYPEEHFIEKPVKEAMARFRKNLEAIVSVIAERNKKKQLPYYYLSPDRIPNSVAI
Conditions: in-vitro studies

inhibition of the activity of 5-lipoxygenase: inhibit the activity of 5-lipoxygenase
Structure (SMILES): Cc1ccc(Cl)c(Nc2ccccc2C(=O)O)c1Cl [meclofenamate]
